Laboratory results reported in patent US20060069132A1, “Azolecarboxamide herbicides” (priority 2004, published 2006).

Assays:
[1] = test system: chickweed; assay: Test C postemergence herbicide test; assay type: in vivo, Stellaria media; conditions: for Chickweed plant response rating: 500 g ai/ha
In short: (§1)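 Plants were grown to the 1- to 4-leaf stage (2–18 cm) and then treated postemergence, or grown to the 2-leaf stage for the flooded paddy test. They were held in a greenhouse for 12 to 14 days and then scored by eye against controls, where 0 is no effect and 100 is complete control.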

[2] = test system: barnyardgrass; assay: Test C flooded paddy test; assay type: in vivo, Echinochloa crus-galli; conditions: for Plant response rating, Barnyardgrass: visual rating after 12 to 14 days
In short: as §1

[3] = test system: eastern black nightshade; assay: Test C pre-/postemergence herbicide test; assay type: in vivo, Solanum ptycanthum; conditions: for Plant response rating (0 = no effect, 100 = complete control), Nightshade: 62 g ai/ha; for Plant response rating (0 = no effect, 100 = complete control), Nightshade / Plant response rating, Nightshade: preemergence; for Plant response rating, Nightshade: visual, 12 to 14 days; for Nightshade plant response rating: Preemergence, 500 g ai/ha, scale 0 to 100, 0 no effect, 100 complete control
In short: (§2)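 Preemergence: seeds planted and treated with compound in non-phytotoxic solvent with surfactant; postemergence: plants at 2 to 18 cm (1- to 4-leaf stage) sprayed likewise. Kept in greenhouse 12 to 14 days, then visually rated against controls, 0 (no effect) to 100 (complete control).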

[4] = test system: johnsongrass; assay: Test C pre-/postemergence herbicide test; assay type: in vivo, Sorghum halepense; conditions: for Johnsongrass plant response rating: 500 g ai/ha
In short: as §2

[5] = Postemergence, 250 g ai/ha, scale 0 to 100, 0 no effect, 100 complete control
[6] = postemergence, 125 g ai/ha, scale 0 to 100
[7] = postemergence, 62 g ai/ha, scale 0 to 100
[8] = 62 g ai/ha, scale 0 to 100 (0 no effect, 100 complete control)
[9] = 125 g ai/ha, scale of 0 to 100, 0 is no effect, 100 is complete control
[10] = 250 g ai/ha, scale of 0 to 100, 0 is no effect, 100 is complete control
[11] = 500 g ai/ha, scale 0 to 100 (0 no effect, 100 complete control)
[12] = 125 g ai/ha, scale 0 (no effect) to 100 (complete control)
[13] = 125 g ai/ha, scale 0 (no effect) to 100 (complete control), visual, 12 to 14 days, preemergence
[14] = Preemergence, scale 0 to 100, 0 no effect, 100 complete control
[15] = Postemergence, 125 g ai/ha, scale 0 to 100, 0 no effect, 100 complete control
[16] = 250 g ai/ha, scale 0 to 100 (0 no effect, 100 complete control)
[17] = 250 g ai/ha, scale 0 to 100 (0 no effect, 100 complete control), visual, 12 to 14 days, preemergence

SMILES | Chickweed plant response rating ([1]; Postemergence, scale 0 to 100) | Plant response rating, Chickweed [1, 5] | Plant response rating, Chickweed [1, 6] | Plant response rating, Chickweed [1, 7] | Barnyardgrass plant response rating [2, 8] | Barnyardgrass plant response rating [2, 9] | Barnyardgrass plant response rating [2, 10] | Plant response rating, Barnyardgrass [2, 11] | Plant response rating (0 = no effect, 100 = complete control), Nightshade [3] | Plant response rating, Nightshade [3, 12] | Nightshade plant response rating [3] | Plant response rating (0 = no effect, 100 = complete control), Johnsongrass ([4]; 62 g ai/ha, preemergence) | Plant response rating, Johnsongrass [4, 13] | Johnsongrass plant response rating ([4]; Postemergence, scale 0 to 100) | Plant response rating, Johnsongrass [4, 5] | Johnsongrass plant response rating [4, 14] | Plant response rating, Johnsongrass [4, 6] | Plant response rating, Johnsongrass [4, 7] | Plant response rating, Chickweed [1, 15] | Plant response rating, Nightshade [3, 16] | further results
CC(=NO)c1cccc(NC(=O)c2cc(C(C)(C)C)nn2CCF)c1 [Compound 115] | 100 | 100 | 100 | 100 | 30 | 45 | 65 | 75 | 100 | 100 | 100 | 70 | 100 | 100 | 80 | 100 | 50 | 30 |  |  | 
CCOC(=O)c1cc(NC(=O)c2cc(C(C)(C)C)nn2CC)ccc1OC [Compound 96] | 100 | 100 | 100 | 100 | 45 | 45 | 70 | 80 | 90 | 95 | 100 | 40 | 60 | 50 | 50 | 95 | 50 | 0 |  |  | 
C#CCNC(=O)c1cccc(NC(=O)c2cc(C(C)(C)C)nn2CC)c1 [Compound 47] | 100 | 90 |  | 90 | 0 | 0 |  | 40 | 100 | 100 | 100 | 20 | 100 | 90 | 90 | 100 |  | 30 | 90 | 100 | Plant response rating, Barnyardgrass [2, 16]: 40; Plant response rating, Johnsongrass [4, 17]: 100; Plant response rating, Johnsongrass [4, 15]: 30
CCNC(=O)c1cc(NC(=O)c2cc(C(C)(C)C)nn2CC)ccc1F [Compound 58] | 85 | 50 |  | 20 | 0 | 10 | 35 | 85 | 95 | 100 | 100 | 70 | 80 | 10 | 5 | 100 |  | 0 | 20 | 100 | Plant response rating, Johnsongrass [4, 17]: 90; Plant response rating, Johnsongrass [4, 15]: 0
